Counter-ions that a name gives are not always drawn.
Assay: Tolerance, hematology, biochemistry and calcium during 90-day treatment in dogs with periodontal disease
Format: in vivo
Parameters: Platelet: unit not given here
Conditions: for Alanine transferase / Albumin / Albumin/Globulin ratio / Alkalin phosphatase / BUN/Creatinine ratio / Basophil / Creatinine / Eosinophil / Globulin / Glucose / HCT / HGB / Lymphocyte / MCH / MCHC / MCV / Monocyte / Neutrophil / Platelet / RBC / Reticulocyte / Total calcium / Total protein / Urea: mean
Experimental: The present study was performed on 10 Beagle dogs suffering from alveolar bone loss induced by spontaneously developed periodontal disease. All dogs were treated with MIV-701 besylate salt for minimum 30 day and maximum 90 days, depending on the tolerance at intermediate visits. The product is administrated to the dog by its owner at home, once a day with a meal.
There were two treatment groups: • Group A (5 dogs) with a dose of 25 mg/kg. • Group B (5 dogs) with a dose of 50 mg/kg.
Treatment was administrated for 90 days. Every 30 days, based on the results of clinical exam, blood parameters and potential occurrence of adverse events suspected to be drug-related, the treatment prolongation for another 30 days, or discontinuation of treatment was decided by the Investigator.
Whole blood sample for hematology analysis was collected at visit V1 (between Day -7 and Day 0), visit V3 (Day 30+3 days), Visit V4 (Day 60t 3 days) and Visit V5 (Day 90t 3 days).
The result from visit V1 (between Day -7 and Day 0) was used as a baseline value for the safety evaluation criteria.
Each time 1 ml of the peripheral whole blood was collected on a tube with anti-coagulant (EDTA) and gently inverted several times. A complete blood count: WBC with details of lymphocytes, monocytes and polynuclear cells (neutrophils, eosinophils and basophils); Red blood cells (RBC); Hematocrit (HCT); Hemoglobin (HGB); Reticulocytes (RETIC); Mean corpuscular volume (MCV); Mean Corpuscular Hemoglobin (MCH); Mean Corpuscular Hemoglobin Concentration (MCHC); platelets count (PLT) was performed.
Whole blood sample for biochemistry analysis was collected at visit V1 (between Day -7 and Day 0), visit V3 (Day 30+3 days), Visit V4 (Day 60t 3 days) and Visit V5 (Day 90t 3 days).
Each time 1.3 ml of the peripheral whole blood was collected on lithium heparin tube and gently inverted several times. Next, sample was centrifuged at 2500 G for 5 minutes at room temperature and heparin plasma will be collected. The following biochemical parameters: Albumin, Alanine transaminase (ALT), Alkaline phosphatase (ALP), creatinine, globulins, glucose, Total proteins, Urea, Albumin/globulin ratio and urea/creatinine ratio were analyzed.

[1] = dogs with periodontal disease, 90-day treatment
[2] = Day 30, 25 or 50 mg/kg/day oral
[3] = Day 60, 25 or 50 mg/kg/day oral
[4] = Day 90, all dogs 50 mg/kg/day for last 30 days

In the case of `CC(C)C[C@H](NC(=O)c1ccc(-c2csc(N3CCN(C)CC3)n2)cc1)C(=O)N1C[C@H](F)[C@H]2OCC(O)(O)[C@H]21` [MIV-701 besylate salt, N-[(S)-1-((3aS,6S,6aS)-6-Fluoro-S-oxo-hexahydro-furo[3,2-b]pyrrole-4-carbony)-3-methyl-butyl]-4-[2-(4-methyl-piperazin-1-yl)-thiazol-4-yl]-benzamide benzenesulphonate], the “death and Serious Adverse Event (SAE)” value [1] is reported as “No death and no Serious Adverse Event (SAE)”, the “evolution of blood cell count and clinical biochemistry parameters” value [1] is reported as “No safety concern” and the tolerance (dogs with periodontal disease, once-a-day 25 and 50 mg/kg/day, 90-day treatment period) is reported as “well tolerated”. For the same compound, the Alanine transferase [2] was 37,9 U/L, the Albumin [2] was 26,3 g/L and the Albumin/Globulin ratio [2] was 0,61. The Alkalin phosphatase [2] was 31,5 U/L, the BUN/Creatinine ratio [2] was 17,8 and the Basophil [2] was 0,03 10^9/L. For the same compound, the Creatinine [2] was 57,8 µmol/L, the Eosinophil [2] was 1,3 10^9/L and the Globulin [2] was 43,6 g/L. For the same compound, the Glucose [2] was 5,3 mmol/L, the HCT [2] was 41,8% and the HGB [2] was 14,2 g/DL. The Lymphocyte [2] was 1,7 10^9/L, the MCH [2] was 21,5 pg and the MCHC [2] was 33,9 g/DL. The MCV [2] was 63,5 fL, the Monocyte [2] was 0,8 10^9/L and the Neutrophil [2] was 7,7 10^9/L. The Platelet [2] was 381,3, the RBC [2] was 6,6 10^12/L and the Reticulocyte [2] was 32,0 K/µL. For the same compound, the Total calcium [2] was 2,4 mmol/L, the Total protein [2] was 7,0 g/dL and the Urea [2] was 4,0 mmol/L. For the same compound, the Alanine transferase [3] was 41,7 U/L, the Albumin [3] was 26,9 g/L and the Albumin/Globulin ratio [3] was 0,65. For the same compound, the Alkalin phosphatase [3] was 31,6 U/L, the BUN/Creatinine ratio [3] was 21,7 and the Basophil [3] was 0,03 10^9/L. For the same compound, the Creatinine [3] was 62,7 µmol/L, the Eosinophil [3] was 1,2 10^9/L and the Globulin [3] was 40,6 g/L. For the same compound, the Glucose [3] was 5,7 mmol/L, the HCT [3] was 40,0% and the HGB [3] was 13,6 g/DL. For the same compound, the Lymphocyte [3] was 1,7 10^9/L, the MCH [3] was 21,8 pg and the MCHC [3] was 33,8 g/DL. The MCV [3] was 64,6 fL, the Monocyte [3] was 0,7 10^9/L and the Neutrophil [3] was 7,0 10^9/L. For the same compound, the Platelet [3] was 384,8, the RBC [3] was 6,2 10^12/L and the Reticulocyte [3] was 22,9 K/µL. For the same compound, the Total calcium [3] was 2,3 mmol/L, the Total protein [3] was 6,8 g/dL and the Urea [3] was 5,4 mmol/L. For the same compound, the Alanine transferase [4] was 36,8 U/L, the Albumin [4] was 28,3 g/L and the Albumin/Globulin ratio [4] was 0,65. The Alkalin phosphatase [4] was 45,4 U/L, the BUN/Creatinine ratio [4] was 22,8 and the Basophil [4] was 0,02 10^9/L. The Creatinine [4] was 60,2 µmol/L, the Eosinophil [4] was 1,2 10^9/L and the Globulin [4] was 43,0 g/L. For the same compound, the Glucose [4] was 5,7 mmol/L, the HCT [4] was 40,1% and the HGB [4] was 13,6 g/DL. The Lymphocyte [4] was 1,7 10^9/L, the MCH [4] was 22,2 pg and the MCHC [4] was 33,8 g/DL. For the same compound, the MCV [4] was 65,7 fL, the Monocyte [4] was 0,9 10^9/L and the Neutrophil [4] was 8,3 10^9/L. The Platelet [4] was 423,0, the RBC [4] was 6,2 10^12/L and the Reticulocyte [4] was 29.5 K/µL. The Total calcium [4] was 2,4 mmol/L, the Total protein [4] was 7,1 g/dL and the Urea [4] was 5,4 mmol/L. For the same compound, the “dogs with one episode of diarrhea of mild intensity for 2 days” value (of 10 dogs, spontaneously resolved under treatment) was 2 dogs.

Reference: patent publication EP4613273A1, “TREATMENT OF BONE LOSS” (priority 2024, dated 2025)
